Results reported in patent US11986532B2 (Arvinas Operations, Inc., priority 2021, dated 2024).

Target: T1, BCL6 (Homo sapiens, UniProt P41182)
T1 construct: endogenous in cells; host or cells: T47D breast cancer epithelial cells
Assay: Immunofluorescence protocol for high content imaging of BCL6 (degradation) in T47D cells, 3 days compound treatment
Format: cell-based
Conditions: for Dmax: T47D, read-out: Mean Dmax (%)** category; for DC50: read-out: Mean DC50 (nM)* category
In short: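 High content immunofluorescence imaging (10×, 4 fields/well) of BCL6 using rabbit primary antibody, Alexa-488 secondary, cell mask and Hoechst nuclear stain after PFA fixation. Before staining, T47D cells (7K/well) were exposed for 3 days at 37° C to 3-fold serial dilutions of compound, top final concentration 0.1 or 1 μM.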

For `CNC(=O)COc1cc2cc(Nc3nc(N4CCC(O[C@H]5C[C@H](N6CCCN(c7ccc8c(c7C)C(=O)N(C7CCC(=O)NC7=O)C8=O)CC6)C5)CC4)ncc3Cl)ccc2n(C(C)C)c1=O` (stereo partly drawn) [Compound 417, 2-({6-[(5-chloro-2-{4-[(1r,3r)-3-{4-[2-(2,6-dioxopiperidin-3-yl)-4-methyl-1,3-dioxo-2,3-dihydro-1H-isoindol-5-yl]-1,4-diazepan-1-yl}cyclobutoxy]piperidin-1-yl}pyrimidin-4-yl)amino]-2-oxo-1-(propan-2-yl)-1,2-dihydroquinolin-3-yl}oxy)-N-methylacetamide], the Dmax was no less than 70% and the DC50 was less than 10 nM.
`CNC(=O)COc1cc2cc(Nc3nc(N4CCC(O[C@H]5C[C@H](N6CC7(CCN(c8ccc9c(c8C)C(=O)N(C8CCC(=O)NC8=O)C9=O)CC7)C6)C5)CC4)ncc3Cl)ccc2n(C(C)C)c1=O` (stereo partly drawn) [Compound 418, 2-({6-[(5-chloro-2-{4-[(1r,3r)-3-{7-[2-(2,6-dioxopiperidin-3-yl)-4-methyl-1,3-dioxo-2,3-dihydro-1H-isoindol-5-yl]-2,7-diazaspiro[3.5]nonan-2-yl}cyclobutoxy]piperidin-1-yl}pyrimidin-4-yl)amino]-2-oxo-1-(propan-2-yl)-1,2-dihydroquinolin-3-yl}oxy)-N-methylacetamide] was tested, and the Dmax was no less than 70% and the DC50 was less than 10 nM.
`CNC(=O)COc1cc2c(F)c(Nc3nc(N4CCC(O[C@H]5C[C@H](N6CCC(c7ccc8c(c7C)C(=O)N(C7CCC(=O)NC7=O)C8=O)CC6)C5)CC4)ncc3Cl)ccc2n(C(C)C)c1=O` (stereo partly drawn) [Compound 419, 2-({6-[(5-chloro-2-{4-[(1r,3r)-3-{4-[2-(2,6-dioxopiperidin-3-yl)-4-methyl-1,3-dioxo-2,3-dihydro-1H-isoindol-5-yl]piperidin-1-yl}cyclobutoxy]piperidin-1-yl}pyrimidin-4-yl)amino]-5-fluoro-2-oxo-1-(propan-2-yl)-1,2-dihydroquinolin-3-yl}oxy)-N-methylacetamide] showed a Dmax of no less than 70% and a DC50 of less than 10 nM.
`CNC(=O)COc1cc2cc(Nc3nc(N4CCC(O[C@H]5C[C@H](N6CC7(CN(c8ccc9c(c8C)C(=O)N(C8CCC(=O)NC8=O)C9=O)C7)C6)C5)CC4)ncc3Cl)ccc2n(C(C)C)c1=O` (stereo partly drawn) [Compound 420, 2-({6-[(5-chloro-2-{4-[(1r,3r)-3-{6-[2-(2,6-dioxopiperidin-3-yl)-4-methyl-1,3-dioxo-2,3-dihydro-1H-isoindol-5-yl]-2,6-diazaspiro[3.3]heptan-2-yl}cyclobutoxy]piperidin-1-yl}pyrimidin-4-yl)amino]-2-oxo-1-(propan-2-yl)-1,2-dihydroquinolin-3-yl}oxy)-N-methylacetamide] showed a Dmax of no less than 70% and a DC50 of less than 10 nM.
With `CNC(=O)COc1cc2c(F)c(Nc3nc(N4CCC(CN5CCC6(CC5)CC5(CN(c7ccc8c(c7)CN(C7CCC(=O)NC7=O)C8=O)C5)C6)CC4)ncc3Cl)ccc2n(C(C)C)c1=O` (stereo not drawn) [Compound 421, 2-{[6-({5-chloro-2-[4-({2-[2-(2,6-dioxopiperidin-3-yl)-1-oxo-2,3-dihydro-1H-isoindol-5-yl]-2,9-diazadispiro [3.1.56.14]dodecan-9-yl}methyl)piperidin-1-yl]pyrimidin-4-yl}amino)-5-fluoro-2-oxo-1-(propan-2-yl)-1,2-dihydroquinolin-3-yl]oxy}-N-methylacetamide] the Dmax was no less than 70% and the DC50 was less than 10 nM.
`CNC(=O)COc1cc2cc(Nc3nc(N4CCC(O[C@H]5C[C@H](N6CCN(C7CN(c8ccc9c(c8F)CN(C8CCC(=O)NC8=O)C9=O)C7)CC6)C5)CC4)ncc3Cl)ccc2n(C(C)C)c1=O` (stereo partly drawn) [Compound 422, 2-({6-[(5-chloro-2-{4-[(1r,3r)-3-(4-{1-[2-(2,6-dioxopiperidin-3-yl)-4-fluoro-1-oxo-2,3-dihydro-1H-isoindol-5-yl]azetidin-3-yl}piperazin-1-yl)cyclobutoxy]piperidin-1-yl}pyrimidin-4-yl)amino]-2-oxo-1-(propan-2-yl)-1,2-dihydroquinolin-3-yl}oxy)-N-methylacetamide] showed a Dmax of no less than 70% and a DC50 of less than 10 nM.
